# Patent US6737383B1, “Herbicidal oxadiazolidines” (priority 1999, dated 2004)
# Assays:
# rice = assay: Test B flood test rice; type: in vivo, Oryza sativa
# Procedure, shortened: (§1)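 Flood test on plants grown to the 2-leaf stage; treated plants kept in greenhouse twelve to sixteen days, then visually rated against controls on a 0 (no effect) to 10 (complete control) scale.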
# rape = assay: Test B pre/postemergence rape; type: in vivo, Brassica napus
# Procedure, shortened: (§2)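 Response is a visual 0-to-10 score relative to untreated plants, where 0 means no effect and 10 means complete control, taken twelve to sixteen days after application. Treatments went onto soil at planting and onto foliage of 1- to 4-leaf plants, using a surfactant-containing non-phytotoxic solvent.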
# crabgrass = assay: Test B pre/postemergence crabgrass; type: in vivo, Digitaria sanguinalis
# Procedure, shortened: as §2
# morningglory = assay: Test B pre/postemergence morningglory; type: in vivo, Ipomoea hederacea
# Procedure, shortened: as §2
# blackgrass = assay: Test B pre/postemergence blackgrass; type: in vivo, Alopecurus myosuroides
# Procedure, shortened: as §2
# cocklebur = assay: Test B pre/postemergence cocklebur; type: in vivo, Xanthium strumarium
# Procedure, shortened: as §2
# giant foxtail = assay: Test B pre/postemergence giant foxtail; type: in vivo, Setaria faberii
# Procedure, shortened: as §2
# pigweed = assay: Test B pre/postemergence pigweed; type: in vivo, Amaranthus retroflexus
# Procedure, shortened: as §2
# corn = assay: Test B pre/postemergence corn; type: in vivo, Zea mays
# Procedure, shortened: as §2
# wild oat = assay: Test B pre/postemergence wild oat; type: in vivo, Avena fatua
# Procedure, shortened: as §2
# velvetleaf = assay: Test B pre/postemergence velvetleaf; type: in vivo, Abutilon theophrasti
# Procedure, shortened: as §2
# bamyardgrass = assay: Test B flood test barnyardgrass; type: in vivo, Echinochloa crus-galli
# Procedure, shortened: as §1
# surinam grass = assay: Test B pre/postemergence surinam grass; type: in vivo, Brachiaria decumbens
# Procedure, shortened: as §2
# sugar beet = assay: Test B pre/postemergence sugar beet; type: in vivo, Beta vulgaris
# Procedure, shortened: as §2
# bedstraw = assay: Test B pre/postemergence bedstraw; type: in vivo, Galium aparine; conditions: Postemergence
# Procedure, shortened: as §2
# smallflower flatsedge = assay: Test B flood test smallflower flatsedge; type: in vivo, Cyperus difformis
# Procedure, shortened: as §1
# [1] = Rate 62 g/ha, flood test species, Pre-emergence, visual evaluation after twelve to sixteen days
# [2] = Rate 125 g/ha, under heading Pre-emergence, flood test species, visual evaluation after twelve to sixteen days
# [3] = Rate 250 g/ha, Pre-emergence (flood test species), scale 0 to 10, 0 is no effect, 10 is complete control
# [4] = Rate 500 g/ha, Pre-emergence section of Table B, 0 to 10 scale (0 no effect, 10 complete control)
# [5] = Postemergence, Rate 62 g/ha, scale 0 to 10, 0 is no effect, 10 is complete control
# [6] = Postemergence, Rate 125 g/ha, scale of 0 to 10 where 0 is no effect and 10 is complete control
# [7] = Postemergence, Rate 250 g/ha, scale of 0 to 10, 0 is no effect, 10 is complete control
# [8] = Postemergence, Rate 500 g/ha, scale of 0 to 10 where 0 is no effect and 10 is complete control
# [9] = Preemergence, Rate 62 g/ha, scale 0 to 10 (0 no effect, 10 complete control)
# [10] = Preemergence, Rate 125 g/ha, scale of 0 to 10 where 0 is no effect and 10 is complete control
# [11] = Preemergence, Rate 250 g/ha, scale 0 to 10 (0 no effect, 10 complete control)
# [12] = Preemergence, Rate 500 g/ha, scale of 0 to 10 where 0 is no effect and 10 is complete control
smiles,measurement,setting,value
CCOC(Cn1c(=O)on(C(=O)N(c2ccc(Cl)cc2)C(C)C)c1=O)OCC [Compound 633],"Plant response rating, Rice (0 to 10 scale, 0 is no effect, 10 is complete control)",rice; [1],0
same,"Rice plant response rating (0 to 10 scale, 0 is no effect, 10 is complete control)",rice; [2],0
same,Rice plant response rating,rice; [3],0
same,Rice plant response rating,rice; [4],0
same,"Plant response rating, Rape",rape; [5],0
same,"Plant response rating, Rape",rape; [6],0
same,Rape plant response rating,rape; [7],0
same,"Plant response rating, Rape",rape; [8],0
same,Rape plant response rating,rape; [9],0
same,Rape plant response rating,rape; [10],0
same,"Plant response rating, Rape",rape; [11],1
same,"Plant response rating, Rape",rape; [12],4
same,"Plant response rating, Crabgrass",crabgrass; [5],0
same,"Plant response rating, Crabgrass",crabgrass; [6],0
same,Crabgrass plant response rating,crabgrass; [7],3
same,"Plant response rating, Crabgrass",crabgrass; [8],9
same,Crabgrass plant response rating,crabgrass; [9],5
same,Crabgrass plant response rating,crabgrass; [10],8
same,"Plant response rating, Crabgrass",crabgrass; [11],9
same,"Plant response rating, Crabgrass",crabgrass; [12],9
same,"Plant response rating, Morningglory",morningglory; [5],1
same,"Plant response rating, Morningglory",morningglory; [6],2
same,Morningglory plant response rating,morningglory; [7],5
same,"Plant response rating, Morningglory",morningglory; [8],5
same,Morningglory plant response rating,morningglory; [9],0
same,Morningglory plant response rating,morningglory; [10],0
same,"Plant response rating, Morningglory",morningglory; [11],0
same,"Plant response rating, Morningglory",morningglory; [12],0
same,"Plant response rating, Blackgrass",blackgrass; [5],0
same,"Plant response rating, Blackgrass",blackgrass; [6],0
same,Blackgrass plant response rating,blackgrass; [7],4
same,"Plant response rating, Blackgrass",blackgrass; [8],8
same,Blackgrass plant response rating,blackgrass; [9],0
same,Blackgrass plant response rating,blackgrass; [10],3
same,"Plant response rating, Blackgrass",blackgrass; [11],5
same,"Plant response rating, Blackgrass",blackgrass; [12],7
same,"Plant response rating, Cocklebur",cocklebur; [5],0
same,"Plant response rating, Cocklebur",cocklebur; [6],0
same,Cocklebur plant response rating,cocklebur; [7],0
same,"Plant response rating, Cocklebur",cocklebur; [8],0
same,Cocklebur plant response rating,cocklebur; [9],0
same,Cocklebur plant response rating,cocklebur; [10],0
same,"Plant response rating, Cocklebur",cocklebur; [11],0
same,"Plant response rating, Cocklebur",cocklebur; [12],0
same,"Plant response rating, Giant foxtail",giant foxtail; [5],0
same,"Plant response rating, Giant foxtail",giant foxtail; [6],0
same,Giant foxtail plant response rating,giant foxtail; [7],3
same,"Plant response rating, Giant foxtail",giant foxtail; [8],8
same,Giant foxtail plant response rating,giant foxtail; [9],6
same,Giant foxtail plant response rating,giant foxtail; [10],9
same,"Plant response rating, Giant foxtail",giant foxtail; [11],10
same,"Plant response rating, Giant foxtail",giant foxtail; [12],10
same,"Plant response rating, Redroot pigweed",pigweed; [5],0
same,"Plant response rating, Redroot pigweed",pigweed; [6],0
same,Redroot pigweed plant response rating,pigweed; [7],1
same,Redroot pigweed plant response rating,pigweed; [9],0
same,Redroot pigweed plant response rating,pigweed; [10],0
same,"Plant response rating, Redroot pigweed",pigweed; [11],2
same,"Plant response rating, Redroot pigweed",pigweed; [12],4
same,"Plant response rating, Corn",corn; [5],0
same,"Plant response rating, Corn",corn; [6],0
same,Corn plant response rating,corn; [7],0
same,"Plant response rating, Corn",corn; [8],0
same,Corn plant response rating,corn; [9],0
same,Corn plant response rating,corn; [10],0
same,"Plant response rating, Corn",corn; [11],0
same,"Plant response rating, Corn",corn; [12],2
same,"Plant response rating, Wild oats",wild oat; [5],0
same,"Plant response rating, Wild oats",wild oat; [6],0
same,Wild oats plant response rating,wild oat; [7],0
same,Wild oats plant response rating,wild oat; [9],0
same,Wild oats plant response rating,wild oat; [10],2
same,"Plant response rating, Wild oats",wild oat; [11],3
same,"Plant response rating, Wild oats",wild oat; [12],5
same,"Plant response rating, Velvetleaf",velvetleaf; [5],0
same,"Plant response rating, Velvetleaf",velvetleaf; [6],0
same,Velvetleaf plant response rating,velvetleaf; [7],0
same,Velvetleaf plant response rating,velvetleaf; [9],0
same,Velvetleaf plant response rating,velvetleaf; [10],0
same,"Plant response rating, Velvetleaf",velvetleaf; [11],0
same,"Plant response rating, Velvetleaf",velvetleaf; [12],0
same,"Plant response rating, Barnyardgrass (0 to 10 scale, 0 is no effect, 10 is complete control)",bamyardgrass; [1],0
same,"Barnyardgrass plant response rating (0 to 10 scale, 0 is no effect, 10 is complete control)",bamyardgrass; [2],0
same,Barnyardgrass plant response rating,bamyardgrass; [3],0
same,Barnyardgrass plant response rating,bamyardgrass; [4],0
same,"Plant response rating, B. signalgrass",surinam grass; [5],0
same,"Plant response rating, B. signalgrass",surinam grass; [6],0
same,B. signalgrass plant response rating,surinam grass; [7],0
same,"Plant response rating, B. signalgrass",surinam grass; [8],5
same,B. signalgrass plant response rating,surinam grass; [9],0
same,B. signalgrass plant response rating,surinam grass; [10],3
same,"Plant response rating, B. signalgrass",surinam grass; [11],6
same,"Plant response rating, B. signalgrass",surinam grass; [12],6
same,"Plant response rating, Sugarbeets",sugar beet; [5],0
same,"Plant response rating, Sugarbeets",sugar beet; [6],0
same,Sugarbeets plant response rating,sugar beet; [7],0
same,Sugarbeets plant response rating,sugar beet; [9],0
same,Sugarbeets plant response rating,sugar beet; [10],0
same,"Plant response rating, Sugarbeets",sugar beet; [11],0
same,"Plant response rating, Sugarbeets",sugar beet; [12],0
same,"Plant response rating, Bedstraw","bedstraw; Rate 62 g/ha, scale 0 to 10, 0 is no effect, 10 is complete control",0
same,"Plant response rating, Bedstraw","bedstraw; Rate 125 g/ha, scale of 0 to 10 where 0 is no effect and 10 is complete control",0
same,Bedstraw plant response rating,"bedstraw; Rate 250 g/ha, scale of 0 to 10, 0 is no effect, 10 is complete control",0
same,"Plant response rating, S. Flatsedge (0 to 10 scale, 0 is no effect, 10 is complete control)",smallflower flatsedge; [1],0
same,"S. Flatsedge plant response rating (0 to 10 scale, 0 is no effect, 10 is complete control)",smallflower flatsedge; [2],0
same,S. Flatsedge plant response rating,smallflower flatsedge; [3],0
same,S. Flatsedge plant response rating,smallflower flatsedge; [4],0
